Legend:
Type in all cases: biochemical
Details in all cases: physiologic buffer
[1] = target: T1, recombinant active human PAI-1 (Homo sapiens (Human), UniProt P05121); experiment: Fluorometric PAI-1/uPA IC50 plate assay at pH 7.8
Description: To determine the efficacy of various synthesized compounds as PAI-1 inhibitors at pH 7.8, additional fluorometric plate assays were carried out to measure the half maximal inhibitory concentration (IC50) of these compounds on recombinant active human PAI-1 in vitro.
PAI-1 inhibitor compounds were dissolved in DMSO to a final concentration of (10-50 mM), depending upon solubility. […] Fluorescence, as a measure of the rate of AMC release by uPA, was read at the following wavelengths; excitation 370 nm, emission 440 nm. Controls included PAI-1 and uPA in the absence of compound and uPA alone. Percent PAI-1 inhibition was calculated using the following formula: [(uPA alone-uPA/PAI-1+ compound)/(uPA alone-PAI-1/uPA)]*100%. The IC50 was calculated using Graphit (IC50 0-100%).

[2] = target: T1, recombinant active human PAI-1; experiment: Fluorometric PAI-1/tPA IC50 plate assay at pH 7.8
Description: (§1) Additional fluorometric plate assays were carried out, as set out below, to determine the IC50 of various synthesized compounds as PAI-1 inhibitors.
PAI-1 inhibitor compounds were dissolved in DMSO to a final concentration of (10-50 mM), depending upon solubility. […] Tissue type PA activity in each reaction mixture was determined by adding Phe-Gly-Arg-AMC fluorogenic substrate (100 μL of 100 μM) (Centerchem). The rate of AMC release by tPA was measured at an excitation wavelength of 370 nm and an emission wavelength of 440 nm. Controls included PAI-1 and tPA in the absence of compound and tPA alone. Percent PAI-1 inhibition was calculated using the following formula: [(tPA alone-tPA/PAI-1+ compound)/(tPA alone-PAI-1/tPA)]*100%. The IC50 is calculated using Graphit (IC50 0-100%).

[3] = target: anti-thrombin III (ATIII) (Homo sapiens (Human), UniProt P01008); experiment: Fluorometric ATIII/αIIa IC50 plate assay at pH 7.8 (specificity control)
Description: as §1
Alpha-thrombin is an active enzyme, related to uPA or tPA. Alpha-thrombin is inhibited by the serpin ATIII, which is closely related to PAI-1. This assay was used therefore as a control in testing for specificity of the PAI-1 inhibitor compounds. Thus, any compound that is specific for inhibiting PAI-1 should not inhibit ATIII.
PAI-1 inhibitor compounds were dissolved in DMSO to a final concentration of (10-50 mM), depending upon solubility. […] 100 μL of 100 μM fluorogenic, tripeptide aminomethylcoumarin benzoyl Phe-Val-Arg-AMC substrate was then added and residual αIIa activity was determined based upon cleavage of this substrate. The rate of AMC release by αIIa was measured at an excitation wavelength of 370 nm and an emission wavelength of 440 nm. Controls included PAI-1 and αIIa in the absence of compound and αIIa alone. Percent PAI-1 inhibition is calculated using the following formula: [(αIIa alone-αIIa/PAI-1+ compound)/(αIIa alone-PAI-1/αIIa)]*100%. The IC50 is calculated using Graphit (IC50 0-100%).

Sequence of anti-thrombin III (ATIII) (P01008 33-464 limits assumed, species assumed): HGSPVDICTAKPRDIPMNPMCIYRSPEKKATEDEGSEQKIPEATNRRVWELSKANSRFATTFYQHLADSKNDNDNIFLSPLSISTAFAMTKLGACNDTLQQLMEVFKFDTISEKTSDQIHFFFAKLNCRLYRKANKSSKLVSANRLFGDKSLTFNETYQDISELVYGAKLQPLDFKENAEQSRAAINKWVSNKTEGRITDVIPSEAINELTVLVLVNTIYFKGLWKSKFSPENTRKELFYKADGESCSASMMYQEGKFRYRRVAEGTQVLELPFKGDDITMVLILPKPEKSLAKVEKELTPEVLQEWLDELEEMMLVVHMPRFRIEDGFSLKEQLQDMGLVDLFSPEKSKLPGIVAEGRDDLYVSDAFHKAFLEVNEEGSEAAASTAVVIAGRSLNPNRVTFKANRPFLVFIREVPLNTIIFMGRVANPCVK
T1 sequence (P05121 24-402): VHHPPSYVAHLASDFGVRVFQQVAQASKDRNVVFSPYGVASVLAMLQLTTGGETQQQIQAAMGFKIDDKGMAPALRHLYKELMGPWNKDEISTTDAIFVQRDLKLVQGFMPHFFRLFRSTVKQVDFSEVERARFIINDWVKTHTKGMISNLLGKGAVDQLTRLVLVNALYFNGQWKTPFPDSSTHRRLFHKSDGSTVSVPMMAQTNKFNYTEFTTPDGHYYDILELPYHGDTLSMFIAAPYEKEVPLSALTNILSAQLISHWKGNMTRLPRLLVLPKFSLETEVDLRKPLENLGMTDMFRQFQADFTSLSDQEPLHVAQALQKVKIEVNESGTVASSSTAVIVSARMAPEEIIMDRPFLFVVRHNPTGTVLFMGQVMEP

IC50 [1] | IC50 [2] | IC50 [3] | SMILES
1.57 µM | 1.71 µM | 87 µM | CCCCCCCCN(S(=O)(=O)c1ccc(O)c(O)c1)S(=O)(=O)c1cc(F)c(O)c(F)c1 [C152]
0.7 µM | 1.02 µM | – | O=S(=O)(c1ccc(O)c(O)c1)N(c1ccccc1)S(=O)(=O)c1ccc(O)c(O)c1 [C153]
30.4 µM | 34.8 µM | 2330 µM | CCCCCCCCN(S(=O)(=O)c1cc(F)c(O)c(F)c1)S(=O)(=O)c1cc(F)c(O)c(F)c1 [C155]
189 µM | 581 µM | – | CC(C)(C)OC(=O)NCCCOC(=O)c1cc(O)c(O)c(O)c1 [C156]
0.25 µM | 0.98 µM | 44.4 µM | CCCCCCCCCCN(S(=O)(=O)c1ccc(O)c(O)c1)S(=O)(=O)c1ccc(O)c(O)c1 [C157]
2.6 µM | 1.44 µM | 547 µM | CCCCCCCCCCCCN(S(=O)(=O)c1ccc(O)c(O)c1)S(=O)(=O)c1ccc(O)c(O)c1 [C158]
39 µM | 58.2 µM | 2330 µM | O=S(=O)(NCc1ccccc1)c1ccc(O)c(O)c1 [C160]
3.7 µM | 2.21 µM | 1670 µM | CCCCCCCCNC(=O)c1cc(O)c(O)c(O)c1 [C161]
3.9 µM | 7.59 µM | – | O=S(=O)(c1ccc(O)c(O)c1)N(CCc1ccccn1)S(=O)(=O)c1ccc(O)c(O)c1 [C162]
0.288 µM | 0.611 µM | – | O=S(=O)(c1ccc(O)c(O)c1)N(c1cccc(C(F)(F)F)c1)S(=O)(=O)c1ccc(O)c(O)c1 [C163]
0.35 µM | 0.51 µM | – | O=S(=O)(c1ccc(O)c(O)c1)N(c1ccc(-c2ccccc2)cc1)S(=O)(=O)c1ccc(O)c(O)c1 [C165]

From patent publication US9718760B2, “Plasminogen activator inhibitor-1 inhibitors and methods of use thereof” (THE REGENTS OF THE UNIVERSITY OF MICHIGAN, priority 2012, dated 2017)
